Among the data in ChEMBL document CHEMBL3272309, “Potential central nervous system antitumor agents. Aziridinylbenzoquinones. 1” (J Med Chem, 1976) are T/C and Activity values, retold here.

Calls of active or inactive are those of the source. No cut-off for these calls is given here.

For the first test, the system named is L1210. In words: Antitumor activity against mouse L1210 cells allografted in ip dosed mouse administered qd on day 1, 5 and 9 relative to control. The format is functional.
`CCSC1=C(N2CC2)C(=O)C(SCC)=C(N2CC2)C1=O`: the T/C was 130%.

For `CC1(C)CN1C1=C(Br)C(=O)C(N2CC2(C)C)=C(Br)C1=O`, the result was inactive. In the case of `CC1(C)CN1C1=C(Cl)C(=O)C(N2CC2(C)C)=C(Cl)C1=O`, the outcome was inactive.

With `CC1CN1C1=C(Br)C(=O)C(N2CC2C)=C(Br)C1=O` (stereo not given), the result was inactive. The same measure, in the same setting: under `CC1CN1C1=C(Cl)C(=O)C(N2CC2C)=C(Cl)C1=O` (stereo not given) stands “inactive”; under `O=C1C(Br)=C(N2CC2)C(=O)C(Br)=C1N1CC1`, “inactive”. Still for that read-out and setting: under `O=C1C(Cl)=C(N2CC2)C(=O)C(Cl)=C1N1CC1` stands “inactive”.

For a further test, the system named is L1210. The experiment in a line: Antitumor activity against mouse L1210 cells allografted in ip dosed mouse. It counts as functional, organism-based.
In the case of `CC(=O)NC1=C(Cl)C(=O)C(NC(C)=O)=C(Cl)C1=O`, the outcome was inactive.

With `CC(=O)NC1=C(N2CC2(C)C)C(=O)C(NC(C)=O)=C(N2CC2(C)C)C1=O`, the outcome was inactive. For `CCCSC1=C(N2CC2)C(=O)C(SCCC)=C(N2CC2)C1=O`, the outcome was inactive. On to `CCOC(=N)C1=C(Cl)C(=O)C(C(=N)OCC)=C(Cl)C1=O`, for which the outcome was inactive. The same measure, in the same setting: under `COC1=C(Br)C(=O)C(OC)=C(Br)C1=O` stands “inactive”. `NC1=C(Cl)C(=O)C(N)=C(Cl)C1=O`: the outcome was inactive. For the compound `O=C1C(Cl)=C(Cl)C(=O)C(Cl)=C1Cl`, the outcome was inactive. Turning to `O=C1C(Cl)=C(N2CC2)C(=O)C(Cl)=C1N1CC1`, the result was inactive.

As usually defined, the T/C is the result in the treated group divided by that in the control group, in per cent.
